Laboratory results: US20250241895A1 (GH RESEARCH IRELAND LIMITED, priority 2022, published 2025)

Test: Pharmacokinetics of 5-MeO-DMT and bufotenine after inhalation
Format: in vivo, human
Conditions: LLOQ 25 pg/ml
Protocol: Blood samples were obtained at 1; 2; 4; 7; 10; 15; 20; 30; 45 min and 1; 1.5; 2; 3; 4 hours after administration.
PK parameters were generated by algebraic analysis of the concentration versus time plots for each individual. The analysis was carried out using the software Phoenix WinNonlin 6.3.

With `CN(C)CCc1c[nH]c2ccc(O)cc12` [bufotenine] the “samples with bufotenine concentration above LLOQ” value was “Only in few samples” and the bufotenine blood concentration (from 15 min onwards after 5-MeO-DMT inhalation) was < 25 pg/mL.
